According to patent US9708314B2, “Heterocyclic amide compound” (NISSAN CHEMICAL INDUSTRIES, LTD., priority 2013, dated 2017):

Columns and labels:
Format in all cases: in vivo
[1] = test system: Echinochloa oryzacola Vasing.; test: Test Example 1: herbicidal activity, application before weed generation in submerged conditions; conditions: Application herbicide amount 320 g/ha; Seventeenth Table
How it was run: (§1)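 Pre-emergence water-surface application under 4 cm flooding, same day as sowing, with rice transplanted at 2.5 leaf stage. Dose given as g/ha. Plants grown at 25° C. to 30° C. and rated three weeks later on a 0 (≤5%) to 5 (≥90%) herbicidal-ratio scale.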

Monochoria vaginalis = test: as above; conditions: Application herbicide amount 320 g/ha; Seventeenth Table
How it was run: as §1

Scirpus juncoides = test: as above; conditions: Application herbicide amount 320 g/ha; Seventeenth Table
How it was run: as §1

Abutilon theophrasti = test: Test Example 4: herbicidal effect by application to foliage (diluvial soil, plastic box)
How it was run: (§2)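 Seeds sown in sterilized diluvial soil, covered ~1.5 cm, grown 14 days in greenhouse at 25° C. to 30° C. Emulsion formulation diluted in water to set rate (g/ha) and sprayed onto stems and leaves. Effect scored visually 3 weeks later on 0–5 scale (5 = ≥90% herbicidal ratio, 0 = ≤5%).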

Alopecurus myosuroides = test: as above
How it was run: as §2

Apera spica-venti. = test: as above
How it was run: as §2

Avena fatua = test: as above
How it was run: as §2

Chenopodium album = test: as above
How it was run: as §2

Digitaria ciliaris = test: as above
How it was run: as §2

[2] = test system: Echinochloa crus-galli var. crus-galli; test: as above
How it was run: as §2

Galium spurium = test: as above
How it was run: as §2

Lolium multiflorum Lam. = test: as above
How it was run: as §2

Setaria viridis = test: as above
How it was run: as §2

Veronica persica = test: as above
How it was run: as §2

[3] = test system: Beta vulgaris ssp. vulgaris; test: Test Example 4: effect on crop by application to foliage (diluvial soil, plastic box); conditions: for f: effect on crop
How it was run: as §2

Brassica campestris L. = test: as above; conditions: for g: effect on crop
How it was run: as §2

Glycine max = test: as above; conditions: for c: effect on crop
How it was run: as §2

Triticum aestivum = test: as above; conditions: for e: effect on crop
How it was run: as §2

Zea mays = test: as above; conditions: for b: effect on crop
How it was run: as §2

[4] = test system: directly sowed Oryza sativa; test: as above; conditions: for d: Application herbicide amount 320 g/ha, effect on crop
How it was run: as §2

Amaranthus retroflexus = test: Test Example 4: herbicidal effect by application to foliage (diluvial soil, plastic box); conditions: Application herbicide amount 320 g/ha; foliage application
How it was run: as §2

Stellaria media = test: as above; conditions: application to foliage, application herbicide amount 320 g/ha
How it was run: as §2

[5] = Application herbicide amount 320 g/ha
[6] = Application herbicide amount 320 g/ha, foliage application
[7] = application to foliage, application herbicide amount 320 g/ha

Row | SMILES | A: Echinochloa oryzicola Vasing. (herbicidal effect grade) [1] | C: Monochoria vaginalis (herbicidal effect grade) (Monochoria vaginalis) | B: Scirpus juncoides (herbicidal effect grade) (Scirpus juncoides) | M (Abutilon theophrasti; [5]) | J (Alopecurus myosuroides; [5]) | L (Apera spica-venti.; [5]) | I (Avena fatua; [5]) | O (Chenopodium album; [5]) | F (Digitaria ciliaris; [5]) | H [2, 5] | Q (Galium spurium; [5]) | K (Lolium multiflorum Lam.; [5]) | G (Setaria viridis; [5]) | R (Veronica persica; [5]) | f [3, 5] | g (Brassica campestris L.; [5]) | c (Glycine max; [5]) | e (Triticum aestivum; [5]) | b (Zea mays; [5]) | d [4] | other results
1 | CN(C)c1nnc2c(C(=O)Nc3nnco3)ccc(C(F)(F)F)n12 [1-103] | 5 (Herbicidal ratio of 90% or more (almost completely withered)) | 4 (Herbicidal ratio of 70% or more and less than 90%) | 4 (Herbicidal ratio of 70% or more and less than 90%) | 4 (Herbicidal ratio of 70% or more and less than 90%) | 2 (Herbicidal ratio of 20% or more and less than 40%) | 3 (Herbicidal ratio of 40% or more and less than 70%) | 4 (Herbicidal ratio of 70% or more and less than 90%) | 5 (Herbicidal ratio of 90% or more (almost completely withered)) | 5 (Herbicidal ratio of 90% or more (almost completely withered)) | 5 (Herbicidal ratio of 90% or more (almost completely withered)) | 4 (Herbicidal ratio of 70% or more and less than 90%) | 3 (Herbicidal ratio of 40% or more and less than 70%) | 5 (Herbicidal ratio of 90% or more (almost completely withered)) | 5 (Herbicidal ratio of 90% or more (almost completely withered)) | 5 (Herbicidal ratio of 90% or more (almost completely withered)) | 5 (Herbicidal ratio of 90% or more (almost completely withered)) | 2 (Herbicidal ratio of 20% or more and less than 40%) | 3 (Herbicidal ratio of 40% or more and less than 70%) | 1 (Herbicidal ratio of 5% or more and less than 20%) | 4 (Herbicidal ratio of 70% or more and less than 90%) | 
2 | Cc1nnc(NC(=O)c2ccc(C(F)(F)F)n3c(CC4CC4)nnc23)o1 [1-104] | 4 (Herbicidal ratio of 70% or more and less than 90%) | 2 (Herbicidal ratio of 20% or more and less than 40%) | 3 (Herbicidal ratio of 40% or more and less than 70%) | 4 (Herbicidal ratio of 70% or more and less than 90%) | 1 (Herbicidal ratio of 5% or more and less than 20%) | 2 (Herbicidal ratio of 20% or more and less than 40%) | 4 (Herbicidal ratio of 70% or more and less than 90%) | 5 (Herbicidal ratio of 90% or more (almost completely withered)) | 5 (Herbicidal ratio of 90% or more (almost completely withered)) | 5 (Herbicidal ratio of 90% or more (almost completely withered)) | 3 (Herbicidal ratio of 40% or more and less than 70%) | 1 (Herbicidal ratio of 5% or more and less than 20%) | 5 (Herbicidal ratio of 90% or more (almost completely withered)) | 4 (Herbicidal ratio of 70% or more and less than 90%) | 4 (Herbicidal ratio of 70% or more and less than 90%) | 4 (Herbicidal ratio of 70% or more and less than 90%) | 3 (Herbicidal ratio of 40% or more and less than 70%) | 2 (Herbicidal ratio of 20% or more and less than 40%) | 0 (Herbicidal ratio of 5% or less (almost no effect)) | 4 (Herbicidal ratio of 70% or more and less than 90%) | 
3 | Cc1nnc(NC(=O)c2ccc(C(F)(F)F)n3c(N(C)C(C)C)nnc23)o1 [1-132] | 5 (Herbicidal ratio of 90% or more (almost completely withered)) | 4 (Herbicidal ratio of 70% or more and less than 90%) | 4 (Herbicidal ratio of 70% or more and less than 90%) |  |  |  |  |  |  |  |  |  |  |  |  |  |  |  |  |  | M (Abutilon theophrasti) herbicidal effect grade (Abutilon theophrasti; [6]): 4 (Herbicidal ratio of 70% or more and less than 90%); J (Alopecurus myosuroides) herbicidal effect grade (Alopecurus myosuroides; [6]): 1 (Herbicidal ratio of 5% or more and less than 20%); N (Amaranthus retroflexus) herbicidal effect grade (Amaranthus retroflexus): 3 (Herbicidal ratio of 40% or more and less than 70%); L (Apera spica-venti.) herbicidal effect grade (Apera spica-venti.; [6]): 2 (Herbicidal ratio of 20% or more and less than 40%); I (Avena fatua) herbicidal effect grade (Avena fatua; [6]): 1 (Herbicidal ratio of 5% or more and less than 20%); O (Chenopodium album) herbicidal effect grade (Chenopodium album; [6]): 5 (Herbicidal ratio of 90% or more (almost completely withered)); F (Digitaria ciliaris) herbicidal effect grade (Digitaria ciliaris; [6]): 4 (Herbicidal ratio of 70% or more and less than 90%); H (Echinochloa crus-galli var. crus-galli) herbicidal effect grade [2, 6]: 5 (Herbicidal ratio of 90% or more (almost completely withered)); Q (Galium spurium) herbicidal effect grade (Galium spurium; [6]): 2 (Herbicidal ratio of 20% or more and less than 40%); K (Lolium multiflorum Lam.) herbicidal effect grade (Lolium multiflorum Lam.; [6]): 1 (Herbicidal ratio of 5% or more and less than 20%); G (Setaria viridis) herbicidal effect grade (Setaria viridis; [6]): 3 (Herbicidal ratio of 40% or more and less than 70%); R (Veronica persica) herbicidal effect grade (Veronica persica; [6]): 4 (Herbicidal ratio of 70% or more and less than 90%); f (Beta vulgaris ssp. vulgaris) effect on crop grade [3, 6]: 5 (Herbicidal ratio of 90% or more (almost completely withered)); g (Brassica campestris L.) effect on crop grade (Brassica campestris L.; [6]): 4 (Herbicidal ratio of 70% or more and less than 90%); d (Glycine max) effect on crop grade (Glycine max; [6]): 3 (Herbicidal ratio of 40% or more and less than 70%); e (Triticum aestivum) effect on crop grade (Triticum aestivum; [6]): 1 (Herbicidal ratio of 5% or more and less than 20%); c (Zea mays) effect on crop grade (Zea mays; [6]): 2 (Herbicidal ratio of 20% or more and less than 40%)
4 | COC1CCC(c2nnc3c(C(=O)Nc4nnc(C)o4)ccc(C(F)(F)F)n23)CC1 (stereo not drawn) [1-169] | 5 (Herbicidal ratio of 90% or more (almost completely withered)) | 4 (Herbicidal ratio of 70% or more and less than 90%) | 4 (Herbicidal ratio of 70% or more and less than 90%) |  |  |  |  |  |  |  |  |  |  |  |  |  |  |  |  |  | M: herbicidal effect on Abutilon theophrasti (Abutilon theophrasti; [7]): 3 (Herbicidal ratio of 40% or more and less than 70%); J: herbicidal effect on Alopecurus myosuroides (Alopecurus myosuroides; [7]): 1 (Herbicidal ratio of 5% or more and less than 20%); L: herbicidal effect on Apera spica-venti. (Apera spica-venti.; [7]): 1 (Herbicidal ratio of 5% or more and less than 20%); I: herbicidal effect on Avena fatua (Avena fatua; [7]): 1 (Herbicidal ratio of 5% or more and less than 20%); O: herbicidal effect on Chenopodium album (Chenopodium album; [7]): 5 (Herbicidal ratio of 90% or more (almost completely withered)); F: herbicidal effect on Digitaria ciliaris (Digitaria ciliaris; [7]): 4 (Herbicidal ratio of 70% or more and less than 90%); H: herbicidal effect on Echinochloa crus-galli var. crus-galli [2, 7]: 5 (Herbicidal ratio of 90% or more (almost completely withered)); Q: herbicidal effect on Galium spurium (Galium spurium; [7]): 1 (Herbicidal ratio of 5% or more and less than 20%); K: herbicidal effect on Lolium multiflorum Lam. (Lolium multiflorum Lam.; [7]): 1 (Herbicidal ratio of 5% or more and less than 20%); G: herbicidal effect on Setaria viridis (Setaria viridis; [7]): 3 (Herbicidal ratio of 40% or more and less than 70%); P: herbicidal effect on Stellaria media (Stellaria media): 5 (Herbicidal ratio of 90% or more (almost completely withered)); R: herbicidal effect on Veronica persica (Veronica persica; [7]): 4 (Herbicidal ratio of 70% or more and less than 90%); f: effect on crop, Beta vulgaris ssp. vulgaris [3, 7]: 5 (Herbicidal ratio of 90% or more (almost completely withered)); g: effect on crop, Brassica campestris L. (Brassica campestris L.; [7]): 0 (Herbicidal ratio of 5% or less (almost no effect)); d: effect on crop, Glycine max (Glycine max; [7]): 5 (Herbicidal ratio of 90% or more (almost completely withered)); e: effect on crop, Triticum aestivum (Triticum aestivum; [7]): 1 (Herbicidal ratio of 5% or more and less than 20%); c: effect on crop, Zea mays (Zea mays; [7]): 1 (Herbicidal ratio of 5% or more and less than 20%); b: effect on crop, directly sowed Oryza sativa [4, 7]: 0 (Herbicidal ratio of 5% or less (almost no effect))
